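Protocol summary: plate cells (96-well), add compound at 5 concentrations, incubate 48 h, interpolate endpoints linearly. GI50 is the concentration that inhibits growth by half.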 The source made the active and inactive calls. Cut-off read from the data, not from the text of the source: active = GI50 up to about 1.1 µM and inactive = higher.
How the values were obtained:
Experiment in all cases: DTP human tumour cell line panel, 48 h
[1] = test system: UACC-62
[2] = test system: U-251
[3] = test system: SR
[4] = test system: HOP-92
[5] = test system: NCI-H23
[6] = test system: KM12
[7] = test system: OVCAR-8
[8] = test system: MOLT-4
[9] = test system: SF-268
[10] = test system: RPMI-8226
[11] = test system: 786-0
[12] = test system: LOX IMVI
[13] = test system: SF-295
[14] = test system: NCI/ADR-RES
[15] = test system: SNB-75
[16] = test system: DU-145
[17] = test system: UO-31
[18] = test system: SW-620
[19] = test system: TK-10
[20] = test system: HL-60

| SMILES | GI50 [1] | GI50 [2] | GI50 [3] | GI50 [4] | GI50 [5] | GI50 [6] | GI50 [7] | GI50 [8] | GI50 [9] | GI50 [10] | GI50 [11] | GI50 [12] | GI50 [13] | GI50 [14] | GI50 [15] | GI50 [16] | GI50 [17] | GI50 [18] | GI50 [19] | GI50 [20] |
| --- | --- | --- | --- | --- | --- | --- | --- | --- | --- | --- | --- | --- | --- | --- | --- | --- | --- | --- | --- | --- |
| c1ccc2c(c1)CCc1c-2n(CCN2CCCCC2)c2ccccc12 | 14.8 µM (inactive) | 14.3 µM (inactive) | 8.81 µM (inactive) | 16.4 µM (inactive) | 17.7 µM (inactive) | 14.9 µM (inactive) | 17.7 µM (inactive) | 13.9 µM (inactive) | 21.2 µM (inactive) | 10.3 µM (inactive) | 16.3 µM (inactive) | 15.1 µM (inactive) | 16.9 µM (inactive) | 16.8 µM (inactive) | 16.4 µM (inactive) | 39.4 µM (inactive) | 11.4 µM (inactive) | 20.8 µM (inactive) | 19.1 µM (inactive) | – |
| C=C1C(=O)OC2CC3(C)CCCC(C)C3=CC12 (configuration not stated) | 4.08 µM (inactive) | 7 µM (inactive) | 2.14 µM (inactive) | 2.64 µM (inactive) | 6.04 µM (inactive) | 12.6 µM (inactive) | 12.8 µM (inactive) | 2.56 µM (inactive) | 6.92 µM (inactive) | – | 2.79 µM (inactive) | 1.57 µM (inactive) | 13.1 µM (inactive) | 17.6 µM (inactive) | 2.64 µM (inactive) | 3.67 µM (inactive) | 3.18 µM (inactive) | 2.16 µM (inactive) | 2.46 µM (inactive) | 0.469 µM (active) |
| CCOC(=O)CCC(NC(=O)c1ccc(CNc2nc3cc(N)cc(N)c3nc2-c2ccccc2)cc1)C(=O)OCC (configuration not stated) | > 86.3 µM (inactive) | > 100 µM (inactive) | 3.64 µM (inactive) | 39.9 µM (inactive) | > 67.6 µM (inactive) | > 85.7 µM (inactive) | > 100 µM (inactive) | 1.45 µM (inactive) | > 100 µM (inactive) | – | > 100 µM (inactive) | 99.3 µM (inactive) | > 100 µM (inactive) | > 100 µM (inactive) | > 100 µM (inactive) | > 89.3 µM (inactive) | > 100 µM (inactive) | > 100 µM (inactive) | > 100 µM (inactive) | 10.7 µM (inactive) |
| CCOC(=O)c1ccc(NC(=O)O/N=C(/Cl)CCl)cc1 | – | 39.4 µM (inactive) | 27.2 µM (inactive) | – | 78.5 µM (inactive) | 15.4 µM (inactive) | 41 µM (inactive) | 33.6 µM (inactive) | 47.1 µM (inactive) | 47.2 µM (inactive) | > 100 µM (inactive) | 50.1 µM (inactive) | 30.8 µM (inactive) | 24.5 µM (inactive) | 4.01 µM (inactive) | 65.3 µM (inactive) | 45 µM (inactive) | 50.2 µM (inactive) | 28.4 µM (inactive) | 24.2 µM (inactive) |
| O=C1C[C@@]23CCC4(CC2=CCC[C@H]3O1)OCCO4 | > 100 µM (inactive) | > 100 µM (inactive) | > 100 µM (inactive) | > 100 µM (inactive) | > 100 µM (inactive) | > 100 µM (inactive) | – | > 100 µM (inactive) | > 100 µM (inactive) | > 100 µM (inactive) | > 100 µM (inactive) | > 100 µM (inactive) | > 100 µM (inactive) | > 100 µM (inactive) | – | > 100 µM (inactive) | – | > 100 µM (inactive) | > 100 µM (inactive) | > 100 µM (inactive) |
| COc1ccc(C(OCC2OC3(COC(c4ccccc4)(c4ccc(OC)cc4)c4ccc(OC)cc4)C(Oc4nc(=O)ccn43)C2O)(c2ccccc2)c2ccc(OC)cc2)cc1 (configuration not stated) | > 100 µM (inactive) | > 100 µM (inactive) | > 100 µM (inactive) | – | > 100 µM (inactive) | > 100 µM (inactive) | > 100 µM (inactive) | > 100 µM (inactive) | > 100 µM (inactive) | 71.1 µM (inactive) | > 100 µM (inactive) | > 100 µM (inactive) | > 100 µM (inactive) | > 100 µM (inactive) | – | > 100 µM (inactive) | > 100 µM (inactive) | > 100 µM (inactive) | > 100 µM (inactive) | > 100 µM (inactive) |
| COc1cc([C@@H]2c3cc4c(cc3[C@@H](Nc3ccc(Cl)cc3C(=O)c3ccccc3)[C@H]3COC(=O)[C@H]23)OCO4)cc(OC)c1OC | 0.401 µM (active) | 0.241 µM (active) | 0.295 µM (active) | – | 0.43 µM (active) | 0.258 µM (active) | 0.359 µM (active) | 0.384 µM (active) | 0.558 µM (active) | 0.467 µM (active) | 0.394 µM (active) | 0.303 µM (active) | 0.299 µM (active) | 0.425 µM (active) | – | 0.428 µM (active) | 1.19 µM (inactive) | 0.369 µM (active) | > 100 µM (inactive) | 0.297 µM (active) |
| O=c1[nH]c(=O)n(COCCO)c2ccc(Br)cc12 | > 100 µM (inactive) | > 100 µM (inactive) | 80.4 µM (inactive) | > 100 µM (inactive) | – | > 100 µM (inactive) | > 100 µM (inactive) | > 100 µM (inactive) | – | – | > 100 µM (inactive) | > 100 µM (inactive) | > 100 µM (inactive) | > 100 µM (inactive) | 39 µM (inactive) | > 100 µM (inactive) | 74.3 µM (inactive) | > 100 µM (inactive) | > 100 µM (inactive) | > 100 µM (inactive) |
| CCN(CC)CCNC(=O)c1cc2cc(NC(=O)c3cc4cc([N+](=O)[O-])ccc4[nH]3)ccc2[nH]1 | 32 µM (inactive) | 1.84 µM (inactive) | 7.29 µM (inactive) | 11 µM (inactive) | 8.49 µM (inactive) | 1.71 µM (inactive) | 2.99 µM (inactive) | 13 µM (inactive) | 13.6 µM (inactive) | 1.82 µM (inactive) | 2.25 µM (inactive) | 3.86 µM (inactive) | 27.6 µM (inactive) | > 100 µM (inactive) | 4.89 µM (inactive) | 14.2 µM (inactive) | > 40.5 µM (inactive) | 6.11 µM (inactive) | 14.2 µM (inactive) | – |
| CCOC1OC(COC(=O)C(C)(C)C)C(O)CC1n1cc(C)c(=O)[nH]c1=O (configuration not stated) | > 100 µM (inactive) | > 100 µM (inactive) | > 100 µM (inactive) | > 100 µM (inactive) | > 100 µM (inactive) | > 100 µM (inactive) | > 100 µM (inactive) | – | > 100 µM (inactive) | > 100 µM (inactive) | > 100 µM (inactive) | > 100 µM (inactive) | > 100 µM (inactive) | > 100 µM (inactive) | > 100 µM (inactive) | > 100 µM (inactive) | > 100 µM (inactive) | > 100 µM (inactive) | > 100 µM (inactive) | – |
| CC(=O)OCC1OC(n2c(-c3ccccc3)c(C(C)=O)c(-c3ccc(Cl)cc3)c(C#N)c2=S)C(OC(C)=O)C(OC(C)=O)C1OC(C)=O (configuration not stated) | > 100 µM (inactive) | > 100 µM (inactive) | > 100 µM (inactive) | 0.601 µM (active) | > 100 µM (inactive) | > 100 µM (inactive) | > 100 µM (inactive) | > 100 µM (inactive) | 50.4 µM (inactive) | – | > 100 µM (inactive) | > 100 µM (inactive) | > 100 µM (inactive) | > 100 µM (inactive) | 32.3 µM (inactive) | > 100 µM (inactive) | – | > 100 µM (inactive) | > 100 µM (inactive) | > 100 µM (inactive) |
| C=C(C)[C@@H]1CC[C@]2(C(=O)O)CC[C@]3(C)[C@H](CCC4[C@@]5(C)CC[C@H](C(=O)/C=C/c6ccc(O)c(O)c6)C(C)(C)[C@@H]5CC[C@]43C)[C@@H]12 (some centres not stated) | 3.77 µM (inactive) | – | 3.4 µM (inactive) | – | 2.61 µM (inactive) | 2.2 µM (inactive) | 4.46 µM (inactive) | 2.94 µM (inactive) | 5.28 µM (inactive) | – | 4.35 µM (inactive) | 3.34 µM (inactive) | 3.75 µM (inactive) | 5.46 µM (inactive) | 0.0513 µM (active) | 5.15 µM (inactive) | 3.58 µM (inactive) | – | 11 µM (inactive) | 2.17 µM (inactive) |
| N#C[C@H](C(=O)c1ccccc1F)c1nc2ccccc2[nH]1 | > 100 µM (inactive) | > 100 µM (inactive) | 58.9 µM (inactive) | > 100 µM (inactive) | > 100 µM (inactive) | 96.2 µM (inactive) | > 100 µM (inactive) | > 100 µM (inactive) | > 100 µM (inactive) | > 100 µM (inactive) | > 100 µM (inactive) | > 100 µM (inactive) | > 100 µM (inactive) | > 100 µM (inactive) | 82.6 µM (inactive) | > 100 µM (inactive) | 93.1 µM (inactive) | > 100 µM (inactive) | > 100 µM (inactive) | – |
| O=C(Cn1c(-c2ccccc2)cc2ccccc21)N1CCCC1 | > 100 µM (inactive) | – | > 100 µM (inactive) | > 100 µM (inactive) | – | – | > 100 µM (inactive) | > 100 µM (inactive) | > 100 µM (inactive) | – | > 100 µM (inactive) | > 100 µM (inactive) | > 100 µM (inactive) | > 100 µM (inactive) | > 100 µM (inactive) | > 100 µM (inactive) | > 100 µM (inactive) | > 100 µM (inactive) | – | – |
| CCOC(=O)C#Cc1ccccc1 | 6.75 µM (inactive) | 11.1 µM (inactive) | 2.05 µM (inactive) | 18.3 µM (inactive) | 7.26 µM (inactive) | 12.2 µM (inactive) | 8.75 µM (inactive) | 2.9 µM (inactive) | – | 12.2 µM (inactive) | 4.84 µM (inactive) | 2.96 µM (inactive) | 13.5 µM (inactive) | 4.82 µM (inactive) | – | 25.8 µM (inactive) | 0.741 µM (active) | 8.2 µM (inactive) | 21.6 µM (inactive) | 14.4 µM (inactive) |

— ChEMBL document CHEMBL1201862, “PubChem BioAssay data set” (2004)
